According to US20050101640A1 (Recordati Ireland Limited, priority 2002, published 2005):
Marks after values point to notes of the source that are not given here.

Key:
[1] = cited from earlier work
[2] = tested on: isolated rat aorta; details: in vitro; even after the drug has been removed for 6 hours; cited from earlier work
[3] = tested on: uninephrectomized anesthetized rats, renal ischemia/reperfusion hypertension; test: Model of acute angiotensin-mediated renal hypertension in anesthetized rats (Example VI, with HCTZ); type: in vivo, Sprague-Dawley rats; details: for DBP / HR / SBP: mean ± S.E.M.
Source text: The animals were tracheotomized to facilitate spontaneous breathing.
Silk threads were placed around both vessels and ureter. The cavity was then covered with Vaseline oil.
Results are expressed as mean values ±S.E in the tables and as mean values ±S.E. and Δ±S.E. changes in the figures.

[4] = tested on: uninephrectomized anesthetized rats, renal ischemia/reperfusion hypertension; test: Model of acute angiotensin-mediated renal hypertension in anesthetized rats (Example I); details: for DBP mean change ± S.D: DBP decrease after 10 minutes from the start of drug administration, lercanidipine 10 μg/kg, lisinopril 30 μg/kg i.v. or both, Anova factorial model; for effect on systolic blood pressure and diastolic blood pressure compared to vehicle (and, for the combination, to either drug alone): lercanidipine 10 μg/kg i.v. or both; for DBP / HR / SBP: mean ± S.E.M.
Method: Male Sprague-Dawley rats, weighing 250-300 g, were anaesthetized with pentobarbital sodium (35 mg/kg, i.p.) and placed on a thermic blanket. The temperature was maintained at 37° C. with a thermoregulator via a rectal probe. The animals were tracheotomized to facilitate spontaneous breathing. A polyethylene catheter was placed in the left jugular vein to allow for infusion of pentobarbital sodium to maintain anesthesia. The left femoral vein and artery were cannulated with polyethylene catheters to allow drugs administration and to monitor blood pressure, respectively.
The animals then underwent a left nephrectomy by excising the left kidney via a flank incision. The right kidney and renal vein, artery and ureter then were exposed via a right retroperitoneal incision, under a dissecting microscope. Silk threads were positioned loosely around both vessels and ureter. The cavity was then covered with Vaseline oil.
After 30-60 minutes of basal recordings of arterial blood pressure and heart rate the threads around the renal vessels and ureter were tied close to the renal hilum to induce complete renal ischemia of the right kidney. After 2 hours of ischemia (designated as “120” in Tables 4-7), the threads were removed to allow renal reperfusion and urine output. […] To evaluate the effects of drugs administration on blood pressure and heart rate, two-way ANOVA and Dunnet's test was used.

[5] = time 0 min, basal, before ischemia and before drug
[6] = time 120 min, end of ischemia, before drug
[7] = time 125 min, 5 min after reperfusion, at drug administration (reference value)
[8] = time 130 min (5 min after i.v. drug), lisinopril+HCTZ 10+12 μg/kg, lercanidipine 7.5 μg/kg or all three
[9] = time 135 min (10 min after i.v. drug), lisinopril+HCTZ 10+12 μg/kg, lercanidipine 7.5 μg/kg or all three
[10] = time 150 min (25 min after i.v. drug), lisinopril+HCTZ 10+12 μg/kg, lercanidipine 7.5 μg/kg or all three
[11] = time 165 min (40 min after i.v. drug), lisinopril+HCTZ 10+12 μg/kg, lercanidipine 7.5 μg/kg or all three
[12] = time 180 min (55 min after i.v. drug), lisinopril+HCTZ 10+12 μg/kg, lercanidipine 7.5 μg/kg or all three
[13] = time 130 min (5 min after i.v. drug), lisinopril 30 μg/kg, lercanidipine 10 μg/kg or both
[14] = time 135 min (10 min after i.v. drug), lisinopril 30 μg/kg, lercanidipine 10 μg/kg or both
[15] = time 150 min (25 min after i.v. drug), lisinopril 30 μg/kg, lercanidipine 10 μg/kg or both
[16] = time 165 min (40 min after i.v. drug), lisinopril 30 μg/kg, lercanidipine 10 μg/kg or both
[17] = time 180 min (55 min after i.v. drug), lisinopril 30 μg/kg, lercanidipine 10 μg/kg or both

COC(=O)C1=C(C)NC(C)=C(C(=O)OC(C)(C)CN(C)CCC(c2ccccc2)c2ccccc2)C1c1cccc([N+](=O)[O-])c1 (centres unmarked) [lercanidipine, methyl 1,1,N-trimethyl-N-(3,3-diphenylpropyl)-2-aminoethyl 1,4-dihydro-2,6-dimethyl-4-(3-nitrophenyl)pyridine-3,5-dicarboxylate]
elimination route ([1]; in vivo): essentially via the hepatic route | time of peak plasma levels following dosing ([1]; unmodified release oral dosage form): 2 to 3 h | isolated rat aorta response to high K+ [2]: attenuated | effect on blood pressure (in words) ([3]; i.v. at peak of reperfusion hypertension, lisinopril+HCTZ 10+12 μg/kg, lercanidipine 7.5 μg/kg or all three): statistically significant decrease in diastolic blood pressure | effect on heart rate (in words) ([3]; lisinopril+HCTZ 10+12 μg/kg, lercanidipine 7.5 μg/kg i.v. or all three): positive chronotropic effect | DBP [3, 5]: 82.7 ± 2.7 mmHg | HR [3, 5]: 380.0 ± 17.2 beats/min | SBP [3, 5]: 115.0 ± 3.1 mmHg | DBP [3, 6]: 65.8 ± 4.6 mmHg | HR [3, 6]: 376.0 ± 17.0 beats/min | SBP [3, 6]: 103.8 ± 6.4 mmHg | DBP [3, 7]: 107.0 ± 4.0 mmHg | SBP [3, 7]: 138.0 ± 4.6 mmHg | DBP [3, 8]: 87.0 ± 4.3 b mmHg | HR [3, 8]: 434.0 ± 26.9 b beats/min | SBP [3, 8]: 123.7 ± 3.2 mmHg | DBP [3, 9]: 86.7 ± 5.0 b mmHg | HR [3, 9]: 448.0 ± 14.4 b beats/min | SBP [3, 9]: 121.7 ± 4.9 mmHg | DBP [3, 10]: 86.0 ± 8.2 b mmHg | HR [3, 10]: 444.0 ± 16.1 b beats/min | SBP [3, 10]: 121.0 ± 7.0 mmHg | DBP [3, 11]: 78.0 ± 7.6 b mmHg | HR [3, 11]: 442.0 ± 20.4 b beats/min | SBP [3, 11]: 112.3 ± 6.1 b mmHg | DBP [3, 12]: 66.3 ± 8.0 b mmHg | HR [3, 12]: 434.0 ± 20.9 b beats/min | SBP [3, 12]: 99.8 ± 7.2 b mmHg | DBP mean change ± S.D [4]: 26.13 ± 8.68^a | effect on systolic blood pressure and diastolic blood pressure compared to vehicle (and, for the combination, to either drug alone) ([4]; lisinopril 30 μg/kg): significant decreases | DBP [4, 5]: 69.8 ± 2.5 mmHg | HR [4, 5]: 359.6 ± 13.9 beats/min | SBP [4, 5]: 110.4 ± 3.6 mmHg | DBP [4, 6]: 70.6 ± 5.4 mmHg | HR [4, 6]: 359.3 ± 7.8 beats/min | SBP [4, 6]: 114.5 ± 6.5 mmHg | DBP [4, 7]: 119.3 ± 5.2 mmHg | HR [4, 7]: 383.6 ± 9.9 beats/min | SBP [4, 7]: 167.6 ± 8.9 mmHg | DBP [4, 13]: 97.1 ± 3.1^b mmHg | HR [4, 13]: 433.1 ± 8.9^b beats/min | SBP [4, 13]: 140.4 ± 3.8^b mmHg | DBP [4, 14]: 93.1 ± 4.0^b mmHg | HR [4, 14]: 448.0 ± 6.2^b beats/min | SBP [4, 14]: 140.5 ± 3.7^b mmHg | DBP [4, 15]: 89.5 ± 4.3^b mmHg | HR [4, 15]: 443.6 ± 8.2^b beats/min | SBP [4, 15]: 139.4 ± 3.7^b mmHg | DBP [4, 16]: 83.5 ± 4.6^b mmHg | HR [4, 16]: 435.5 ± 11.2^b beats/min | SBP [4, 16]: 132.0 ± 5.3^b mmHg | DBP [4, 17]: 78.8 ± 4.0^b mmHg | HR [4, 17]: 422.8 ± 12.0^b beats/min | SBP [4, 17]: 128.1 ± 4.7^b mmHg

NCCCC[C@H](N[C@@H](CCc1ccccc1)C(=O)O)C(=O)N1CCC[C@H]1C(=O)O [lisinopril]
time of peak serum concentrations ([1]; following oral administration): ≤ 7 h | DBP mean change ± S.D [4]: 26.83 ± 4.40^a | effect on systolic blood pressure and diastolic blood pressure compared to vehicle (and, for the combination, to either drug alone) ([4]; lisinopril 30 μg/kg): significant decreases | DBP [4, 5]: 73.3 ± 3.2 mmHg | HR [4, 5]: 393.3 ± 8.8 beats/min | SBP [4, 5]: 104.2 ± 3.0 mmHg | DBP [4, 6]: 68.3 ± 2.3 mmHg | HR [4, 6]: 390.3 ± 10.0 beats/min | SBP [4, 6]: 99.3 ± 2.4 mmHg | DBP [4, 7]: 117.3 ± 1.3 mmHg | SBP [4, 7]: 154.3 ± 3.6 mmHg | DBP [4, 13]: 92.5 ± 1.0^b mmHg | HR [4, 13]: 408.3 ± 12.3 beats/min | SBP [4, 13]: 120.7 ± 1.7^b mmHg | DBP [4, 14]: 90.5 ± 1.2^b mmHg | HR [4, 14]: 405.8 ± 9.7 beats/min | SBP [4, 14]: 119.0 ± 2.1^b mmHg | DBP [4, 15]: 77.7 ± 4.1^b mmHg | HR [4, 15]: 406.7 ± 13.1 beats/min | SBP [4, 15]: 111.0 ± 4.0^b mmHg | DBP [4, 16]: 64.0 ± 4.8^b mmHg | HR [4, 16]: 406.7 ± 18.2 beats/min | SBP [4, 16]: 96.0 ± 6.0^b mmHg | DBP [4, 17]: 57.3 ± 5.1^b mmHg | HR [4, 17]: 400.0 ± 14.6 beats/min | SBP [4, 17]: 90.2 ± 6.8^b mmHg
